# How the values were obtained:
# C. albicans yeast = assay: Antimicrobial activity / MIC against C. albicans growing in yeast-forming conditions; format: cell-based, C. albicans SC5314; conditions: for MIC: 24 h; for MIC / MIC C. albicans Yeast: MIC100, lowest concentration inhibiting 100% of growth, 24 hrs incubation; for IC50: Candida albicans, −log IC50 against C. albicans, training set of 3D QSAR, read-out: pIC50 Experimental (converted)
# Experimental: (§1) Collections of bacterial and fungal strains were obtained from the laboratory of Dr. Ibrahim at Harbor-UCLA medical center, Torrance, Calif. The bacterial strains used in this study were the Gram-negative bacterium Escherichia coli and the Gram-Positive bacterium methicillin-resistant Staphylococcus aureus (MRSA) LAC300. All bacterial strains were cultured on sterile Luria-Bertani medium (LB). The fungal strain used in this study was C. albicans SC5314. C. albicans was inoculated into sterile yeast potato dextrose broth (YPD) and incubated for 24 h at 37° C. (This was used as an initial culture for all studies described), and incubated in two different media, Yeast Nitrogen Base (YNB) broth or Roswell Park Memorial Institute medium (RPMI-1640). Polymyxin B (colistin), vancomycin and Ketoconazole were purchased from (Sigma-Aldrich).
# (§2) The antimicrobial activity of compounds SR1-8 on agar plates, liquid broth media and MIC were measured according to modified Clinical and Laboratory Standards Institute (CLSI). Briefly, 0.1 mL containing 10^5 CFU/mL was spread on Luria-Bertani (LB) agar plates. The plates were then incubated at 37° C. for […] with filter discs (8 mm diameter) saturated with different dilutions of the compounds (1-400 μg/mL). The inhibition zones (mm) were measured by determining the diameter of the clear area. Similarly, the activity in liquid media was measured by incubating the aforementioned concentrations of the compounds into LB broth media inoculated with 10^5 CFU/mL in 96-well microplates at 37° C. for 24 h. The turbidity representing the microbial growth was measured by microplate reader (DYNEX technologies) at OD600. […] Each test was performed in triplicate. Ketoconazole, colistin and vancomycin were employed as positive controls against C. albicans, E. coli and S. aureus bacteria, respectively. Cultures without the compounds or antimicrobials were employed as negative control.
# [1] = tested on: C. albicans hyphae / biofilm; assay: Inhibition of Candida biofilm (hyphae) formation, microtiter plate MTT assay; format: cell-based, C. albicans SC5314; conditions: for MIC: MIC100 for biofilm (hyphal) formation, 24 hrs incubation, RPMI-1640, 37° C.; for inhibition at 10 µg/mL: 10 μg/mL, hyphae growth conditions
# Experimental: as §1
# The MICs for cells forming biofilm were determined by a microtiter plate assay. Briefly, a 96-well polystyrene microtiter plate was seeded with 200 μL of RPMI-1640 containing 10^6 C. albicans cells in the presence of the compound of interest at concentration range of 1-100 μg/mL. After 24 h of incubation at 37° C., the biofilms were washed and the fungal viability was analyzed using 3-(4,5-dimethylthiazol-2-yl)-2,5-diphenyl tetrazolium bromide (MTT) (Sigma) and the final absorbance was measured at 540 nm. The assay was performed in triplicate and repeated three times. The MIC of the compounds causing 100% inhibition of C. albicans biofilm formation was determined by measuring the metabolic activity of biofilm compared to solvent control.
# E. coli = assay: Antimicrobial activity / MIC against E. coli; format: cell-based, Escherichia coli; conditions: MIC100, 24 hrs incubation; for MIC: Escherichia coli, read-out: MIC Bacteria E. Coli
# Experimental: as §1, §2
# S. aureus = assay: Antimicrobial activity / MIC against S. aureus; format: cell-based, methicillin-resistant Staphylococcus aureus (MRSA) LAC300; conditions: Staphylococcus aureus; MIC100; 24 hrs incubation; read-out: MIC Bacteria S. aureus
# Experimental: as §1, with “Polymyxin B (colistin), vancomycin and Ketoconazole were purchased from (Sigma-Aldrich).” left out
# The antimicrobial activity of compounds SR1-8 on agar plates, liquid broth media and MIC were measured according to modified Clinical and Laboratory Standards Institute (CLSI). […] The inhibition zones (mm) were measured by determining the diameter of the clear area. Similarly, the activity in liquid media was measured by incubating the aforementioned concentrations of the compounds into LB broth media inoculated with 10^5 CFU/mL in 96-well microplates at 37° C. for 24 h. The turbidity representing the microbial growth was measured by microplate reader (DYNEX technologies) at OD600. […]
# Experimental for human erythrocytes: DPBS-washed erythrocytes (3×10^6 cells per well) were incubated in 96-well plate with 200 μg/mL of SR compounds at 37° C. for 30 min. The hemoglobin released from lysed erythrocytes was measured using micro-plate reader at 405 nm. The absorbance value for each sample was subtracted from the absorbance value of cells treated only with washing buffer and the hemolytic activity (%) was calculated. The data display the mean±standard error (SEM) of three independent measurements.
# The cytotoxic assay of SR compounds was measured by quantifying the amount of hemoglobin released by lysis of human erythrocytes as previously described. Briefly, fresh whole blood from healthy individual was collected by venipuncture and the blood was immediately centrifuged at 500 g for 10 min using benchtop centrifuge (Eppendorf 5804R Refrigerated Benchtop). […] The plate was incubated at 37° C. for 30 min, and the intact cells were precipitated by centrifugation at 500 g for 10 min at 4° C. and the supernatants (125 μL) were transferred to a flat-bottom 96-well plate to measure hemoglobin release by absorbance at 405 nm using a microplate reader. The absorbance values for each sample were subtracted from the absorbance value obtained for washing buffer-treated cells and the hemolytic activity (%) was calculated. […]
Molecule,MIC (C. albicans yeast) [µg/mL],IC50 (C. albicans yeast) [µM],MIC C. albicans Yeast (C. albicans yeast) [µg/mL],MIC [1] [µg/mL],MIC (E. coli) [µg/mL],MIC (S. aureus) [µg/mL],melting point [°C],inhibition at 10 µg/mL [1] [%],MIC Bacteria E. Coli (E. coli) [µg/mL],erythrocyte hemolysis (positive control) (human erythrocytes) [%]
"CC(=O)N1CCN(c2ccc(OCC3COC(Cn4ccnc4)(c4ccc(Cl)cc4Cl)O3)cc2)CC1 (centres unmarked) [Ketoconazole, reference compound]",3,,,,,,,,,
"COc1cc(C=C2SC(=S)NC2=O)ccc1OCc1ccc(C)cc1 [SR1, 5-[3-Methoxy-4-(4-methyl-benzyloxy)-benzylidene]-2-thioxo-thiazolidin-4-one]",400,1080,>400 ± 15,20 ± 5,100 ± 10,> 400,205 to 207,,,
"Cc1ccc(COc2ccc(C=C3SC(=S)NC3=O)cc2Br)cc1 [SR2, 5-[3-Bromo-4-(4-methyl-benzyloxy)-benzylidene]-2-thioxo-thiazolidin-4-one]",200,475,200 ± 15,10 ± 2,100 ± 10,,217 to 219,,,
"Cc1ccc(COc2ccc(C=C3SC(=S)NC3=O)cc2Cl)cc1 [SR3, 5-[3-Chloro-4-(4-methyl-benzyloxy)-benzylidene]-2-thioxo-thiazolidin-4-one]",400,1060,>400 ± 10,20 ± 5,400 ± 10,,225 to 227,,,
"COc1cc(C=C2SC(=S)NC2=O)ccc1OCc1ccc(C(F)(F)F)cc1 [SR4, 5-[3-Methoxy-4-(4-trifluoromethyl-benzyloxy)-benzylidene]-2-thioxo-thiazolidin-4-one]",200,456,200 ± 10,20 ± 5,100 ± 10,,209 to 211,50,,
"O=C1NC(=S)SC1=Cc1ccc(OCc2ccc(C(F)(F)F)cc2)c(Br)c1 [SR5, 5-[3-Bromo-4-(4-trifluoromethyl-benzyloxy)-benzylidene]-2-thioxo-thiazolidin-4-one]",200,470,200 ± 15,20 ± 3,400 ± 20,,210 to 212,,,
"O=C1NC(=S)SC1=Cc1ccc(OCc2cccc(C(F)(F)F)c2)c(Br)c1 [SR6, 5-[3-Bromo-4-(3-trifluoromethyl-benzyloxy)-benzylidene]-2-thioxo-thiazolidin-4-one]",125,264,125 ± 10,10 ± 5,400 ± 10,,235 to 237,50,,
"COc1cc(C=C2SC(=S)NC2=O)ccc1OCc1cccc(C(F)(F)F)c1 [SR7, 5-[3-Methoxy-4-(3-trifluoromethyl-benzyloxy)-benzylidene]-2-thioxo-thiazolidin-4-one]",125,264,125 ± 10,10 ± 3,100 ± 5,,199 to 201,90,,
"O=C1NC(=S)SC1=Cc1ccc(OCc2cccc(C(F)(F)F)c2)c(Cl)c1 [SR8, 5-[3-Chloro-4-(3-trifluoromethyl-benzyloxy)-benzylidene]-2-thioxo-thiazolidin-4-one]",125,294,125 ± 10,20 ± 5,100 ± 10,,224 to 226,50,,
Colistin [reference compound],,,,,,,,,5,
Triton X-100,,,,,,,,,,100

# — patent US11292776B2, “Small molecule inhibitors of fungal hyphae and biofilm formation” (University of Sharjah, priority 2019, dated 2022)
